Results from patent US5109111A, “CRF antagonists” (The Salk Institute for Biological Studies, priority 1990, dated 1992).
Square brackets hold non-standard residues; d marks the D form. Peptide text beside a SMILES is read from it. hArg = N=C(N)NCCCC[C@H](N)C(=O)O; Nle = CCCC[C@H](N)C(=O)O; Orn = NCCC[C@H](N)C(=O)O; Nva = CCC[C@H](N)C(=O)O

System: secretion of ACTH stimulated by oCRF in cultured rat pituitary cells
Assay: Blocking of oCRF-stimulated ACTH and β-endorphin secretion by cultured rat pituitary cells
Assay type: cell-based
Details: result in words
Procedure: The effectiveness of synthetic CRF antagonists to block the secretion of ACTH and β-endorphin by cultured rat pituitary cells is measured using the procedure as generally set forth in Vale et al., Endocrinology, 91, 562 (1972).

Row | SMILES | inhibition of the secretion of ACTH and β-END-LI
1 | CCCC[C@H](NC(=O)[C@H](Cc1ccc(O)cc1)NC(=O)[C@H](CCCCN)NC(=O)[C@H](CCCNC(=N)N)NC(=O)[C@H](CC(N)=O)NC(=O)[C@H](CC(C)C)NC(=O)CNC(=O)[C@H](C)NC(=O)[C@H](CCC(N)=O)NC(=O)[C@H](CCC(=O)O)NC(=O)[C@H](CCCNC(=N)N)NC(=O)[C@H](CCC(N)=O)NC(=O)[C@H](CC(N)=O)NC(=O)[C@H](CCC(=O)O)NC(=O)[C@H](CC(N)=O)NC(=O)[C@H](CCCNC(=N)N)NC(=O)[C@H](C)NC(=O)[C@H](CCSC)NC(=O)[C@H](CCC(=O)O)NC(=O)[C@@H](NC(=O)[C@H](CCSC)NC(=O)[C@H](CC(N)=O)NC(=O)[C@H](CCCNC(=N)N)NC(=O)[C@H](CC(C)C)NC(=O)[C@H](CC(C)C)NC(=O)[C@H](Cc1c[nH]cn1)NC(=O)[C@@H](N)Cc1ccccc1)[C@@H](C)CC)C(=O)N[C@@H](CC(=O)O)C(=O)N[C@@H](CCC(=O)O)C(=O)N[C@H](C(N)=O)C(C)C [VI, [Nle^38]-Carp Urotensin I(12-41)] (H-FHLLRNMIEMARNENQREQAGLNRKY[Nle]DEV-NH2) | inhibits the secretion of ACTH and β-END-LI
2 | CCCC[C@H](NC(=O)[C@H](CCC(=O)O)NC(=O)[C@@H](NC(=O)[C@H](CCCC)NC(=O)[C@H](CC(N)=O)NC(=O)[C@H](CCCNC(=N)N)NC(=O)[C@H](CC(C)C)NC(=O)[C@H](CC(C)C)NC(=O)[C@H](Cc1c[nH]cn1)NC(=O)[C@@H](N)Cc1ccccc1)[C@@H](C)CC)C(=O)N[C@@H](C)C(=O)N[C@@H](CCCNC(=N)N)C(=O)N[C@@H](CC(N)=O)C(=O)N[C@@H](CCC(=O)O)C(=O)N[C@@H](CC(N)=O)C(=O)N[C@@H](CCC(N)=O)C(=O)N[C@@H](CCCNC(=N)N)C(=O)N[C@@H](CCC(=O)O)C(=O)N[C@@H](CCC(N)=O)C(=O)N[C@@H](C)C(=O)NCC(=O)N[C@@H](CC(C)C)C(=O)N[C@@H](CC(N)=O)C(=O)N[C@@H](CCCNC(=N)N)C(=O)N[C@@H](CCCCN)C(=O)N[C@@H](Cc1ccc(O)cc1)C(=O)N[C@@H](CCCC)C(=O)N[C@@H](CC(=O)O)C(=O)N[C@@H](CCC(=O)O)C(=O)N[C@H](C(N)=O)C(C)C [VIII, [Nle^18,21,38]-Carp Urotensin I(12-41)] (H-FHLLRN[Nle]IE[Nle]ARNENQREQAGLNRKY[Nle]DEV-NH2) | inhibits the secretion of ACTH and β-END-LI
3 | CCCC[C@H](NC(=O)[C@H](CC(C)C)NC(=O)[C@H](CCCCN)NC(=O)[C@H](CCCNC(=N)N)NC(=O)[C@H](CC(N)=O)NC(=O)[C@H](CO)NC(=O)[C@H](Cc1c[nH]cn1)NC(=O)[C@H](C)NC(=O)[C@H](CCC(N)=O)NC(=O)[C@H](CCC(N)=O)NC(=O)[C@H](C)NC(=O)[C@H](CC(C)C)NC(=O)[C@H](CCC(N)=O)NC(=O)[C@H](CCC(=O)O)NC(=O)[C@H](C)NC(=O)[C@H](CCCNC(=N)N)NC(=O)[C@H](C)NC(=O)[C@H](CCSC)NC(=O)[C@H](CCC(=O)O)NC(=O)CNC(=O)[C@@H](NC(=O)[C@H](CCC(=O)O)NC(=O)[C@H](CCCNC(=N)N)NC(=O)[C@H](CC(C)C)NC(=O)[C@H](CC(C)C)NC(=O)[C@H](Cc1c[nH]cn1)NC(=O)[C@H](Cc1ccccc1)NC(=O)[C@@H](NC(=O)[C@H](CC(C)C)NC(=O)[C@H](CC(=O)O)NC(C)=O)[C@@H](C)O)C(C)C)C(=O)N[C@@H](CC(=O)O)C(=O)N[C@@H](CCC)C(=O)N[C@H](C(N)=O)[C@@H](C)CC [XIII, [Acetyl-Asp^9, Gly^19, Nle^38, Asp^39, Nva^40]-hCRF(9-41)] (Ac-DLTFHLLREVGEMARAEQLAQQAHSNRKL[Nle]D[Nva]I-NH2) | inhibits the secretion of ACTH and β-END-LI
4 | CCCC[C@H](NC(=O)[C@H](CCC(=O)O)NC(=O)[C@H](CC(C)C)NC(=O)[C@@H](NC(=O)[C@H](CCC(=O)O)NC(=O)[C@H](CCCNC(=N)N)NC(=O)[C@H](CC(C)C)NC(=O)[C@H](CC(C)C)NC(=O)[C@H](Cc1c[nH]cn1)NC(=O)[C@H](Cc1ccccc1)NC(=O)[C@@H](NC(=O)[C@@H](N)CC(C)C)[C@@H](C)O)C(C)C)C(=O)N[C@@H](C)C(=O)N[C@@H](CCCNC(=N)N)C(=O)NCC(=O)N[C@@H](CCC(=O)O)C(=O)N[C@@H](CCC(N)=O)C(=O)N[C@@H](CC(C)C)C(=O)N[C@@H](C)C(=O)N[C@@H](CCC(N)=O)C(=O)N[C@@H](CCC(N)=O)C(=O)N[C@@H](C)C(=O)N[C@@H](Cc1ccc(O)cc1)C(=O)N[C@@H](CO)C(=O)N[C@@H](CC(N)=O)C(=O)N[C@@H](CCCNC(=N)N)C(=O)N[C@@H](CCCN)C(=O)N[C@@H](CC(C)C)C(=O)N[C@@H](CCCC)C(=O)N[C@@H](CCC(=O)O)C(=O)N[C@H](C(=O)N[C@H](C(N)=O)[C@@H](C)CC)[C@@H](C)CC [XV, [Nle^21,38, Gly^24, Tyr^32, Orn^36]-hCRF (10-41)] (H-LTFHLLREVLE[Nle]ARGEQLAQQAYSNR[Orn]L[Nle]EII-NH2) | inhibits the secretion of ACTH and β-END-LI
5 | CCCC[C@H](NC(=O)[C@H](CC(C)C)NC(=O)[C@H](CC(C)C)NC(=O)[C@H](CCCNC(=N)N)NC(=O)[C@H](CC(N)=O)NC(=O)[C@H](CC(N)=O)NC(=O)[C@H](C)NC(=O)[C@H](C)NC(=O)[C@H](CCC(N)=O)NC(=O)[C@H](CCC(N)=O)NC(=O)[C@H](CCCCN)NC(=O)[C@H](CCC(=O)O)NC(=O)[C@H](CCCCN)NC(=O)[C@H](CCC(=O)O)NC(=O)[C@H](CCC(N)=O)NC(=O)[C@H](CCCCN)NC(=O)[C@H](C)NC(=O)[C@@H](NC(=O)[C@H](CCC(=O)O)NC(=O)[C@@H](NC(=O)[C@H](CCSC)NC(=O)[C@H](CCCCN)NC(=O)[C@H](CCCNC(=N)N)NC(=O)[C@H](CC(C)C)NC(=O)[C@H](CC(C)C)NC(=O)[C@H](CCC(=O)O)NC(=O)[C@H](CC(C)C)NC(=O)[C@@H](N)CO)[C@@H](C)CC)[C@@H](C)CC)C(=O)N[C@@H](CC(=O)O)C(=O)N[C@H](C(=O)N[C@@H](CCC(N)=O)C(N)=O)[C@@H](C)O [XVI, [Ala^21, Nle^37, Gln^40]-sauvagine (10-40)] (H-SLELLRKMIEIAKQEKEKQQAANNRLL[Nle]DTQ-NH2) | inhibits the secretion of ACTH and β-END-LI
6 | CCCC[C@H](NC(=O)[C@H](CC(C)C)NC(=O)[C@H](CC(C)C)NC(=O)[C@H](CCCNC(=N)N)NC(=O)[C@H](CC(N)=O)NC(=O)[C@H](CC(N)=O)NC(=O)[C@H](C)NC(=O)[C@H](C)NC(=O)[C@H](CCC(N)=O)NC(=O)[C@H](CCC(N)=O)NC(=O)[C@H](CCCCN)NC(=O)[C@H](CCC(=O)O)NC(=O)[C@H](CCCCN)NC(=O)[C@H](CCC(=O)O)NC(=O)[C@H](CCC(N)=O)NC(=O)[C@H](CCCCNC(=N)N)NC(=O)[C@H](CCC(=O)O)NC(=O)[C@H](C)NC(=O)[C@H](CCC(=O)O)NC(=O)[C@@H](NC(=O)[C@H](CCSC)NC(=O)[C@H](CCCCN)NC(=O)[C@H](CCCNC(=N)N)NC(=O)[C@H](CC(C)C)NC(=O)[C@H](CC(C)C)NC(=O)[C@H](CCC(=O)O)NC(=O)[C@@H](N)CC(C)C)[C@@H](C)CC)C(=O)N[C@@H](CC(=O)O)C(=O)N[C@@H](Cc1ccccc1)C(=O)N[C@H](C(N)=O)[C@@H](C)CC [XVII, [Ala^20, Har^22, Nle^37, Phe^39]-sauvagine (11-40)] (H-LELLRKMIEAE[hArg]QEKEKQQAANNRLL[Nle]DFI-NH2) | inhibits the secretion of ACTH and β-END-LI
7 | CCCC[C@H](NC(=O)[C@H](CC(C)C)NC(=O)[C@H](CC(C)C)NC(=O)[C@H](CCCNC(=N)N)NC(=O)[C@H](CC(N)=O)NC(=O)[C@H](CC(N)=O)NC(=O)[C@H](C)NC(=O)[C@H](C)NC(=O)[C@H](CCC(N)=O)NC(=O)[C@H](CCC(N)=O)NC(=O)[C@H](CCCCN)NC(=O)[C@@H](NC(=O)[C@H](CCCCN)NC(=O)[C@H](CCC(=O)O)NC(=O)[C@H](CCC(N)=O)NC(=O)[C@H](CCCCN)NC(=O)[C@H](CCC(=O)O)NC(=O)[C@@H](NC(=O)[C@H](CCC(=O)O)NC(=O)[C@@H](NC(=O)[C@H](CCSC)NC(=O)[C@H](CCCCN)NC(=O)[C@H](CCCNC(=N)N)NC(=O)[C@H](CC(C)C)NC(=O)[C@H](CC(C)C)NC(=O)[C@H](CCC(=O)O)NC(=O)[C@@H](N)CC(C)C)C(C)C)C(C)C)[C@@H](C)CC)C(=O)N[C@@H](CC(=O)O)C(=O)N[C@H](C(=O)NCC(N)=O)[C@@H](C)O [XVIII, [Val^18,20, Ile^26, Nle^37, Gly^40]-sauvagine(11-40)] (H-LELLRKMVEVEKQEKIKQQAANNRLL[Nle]DTG-NH2) | inhibits the secretion of ACTH and β-END-LI
8 | CCCC[C@H](NC(=O)[C@H](CCC(=O)O)NC(=O)[C@H](CC(C)C)NC(=O)[C@H](CCSC)NC(=O)[C@H](CCC(=O)O)NC(=O)[C@H](CCCNC(=N)N)NC(=O)[C@H](CC(C)C)NC(=O)[C@H](CC(C)C)NC(=O)[C@H](Cc1c[nH]cn1)NC(=O)[C@H](N)Cc1ccccc1)C(=O)N[C@@H](C)C(=O)N[C@@H](CCCCN)C(=O)N[C@@H](C)C(=O)N[C@@H](CCC(=O)O)C(=O)N[C@@H](CCC(N)=O)C(=O)N[C@@H](CCSC)C(=O)N[C@@H](C)C(=O)N[C@@H](CCC(=O)O)C(=O)N[C@@H](CCC(N)=O)C(=O)N[C@@H](C)C(=O)N[C@@H](C)C(=O)N[C@@H](CC(C)C)C(=O)N[C@@H](CC(N)=O)C(=O)N[C@@H](CCCNC(=N)N)C(=O)N[C@@H](CC(C)C)C(=O)N[C@@H](CC(C)C)C(=O)N[C@@H](CCCC)C(=O)N[C@@H](CCC(=O)O)C(=O)N[C@@H](CCC(=O)O)C(=O)N[C@@H](C)C(N)=O [XXI, [D-Phe^12, Met^27, Nle^21,38]-AHC (12-41)] (H-[dF]HLLREMLE[Nle]AKAEQMAEQAALNRLL[Nle]EEA-NH2) | inhibits the secretion of ACTH and β-END-LI
